Activity calls are given as the source filed them. No cut-off for these calls is given here.
Assays:
[1] = biological target: T1, Tyrosine-protein kinase JAK3 (Homo sapiens, UniProt P52333)
T1 sequence (P52333 whole entry): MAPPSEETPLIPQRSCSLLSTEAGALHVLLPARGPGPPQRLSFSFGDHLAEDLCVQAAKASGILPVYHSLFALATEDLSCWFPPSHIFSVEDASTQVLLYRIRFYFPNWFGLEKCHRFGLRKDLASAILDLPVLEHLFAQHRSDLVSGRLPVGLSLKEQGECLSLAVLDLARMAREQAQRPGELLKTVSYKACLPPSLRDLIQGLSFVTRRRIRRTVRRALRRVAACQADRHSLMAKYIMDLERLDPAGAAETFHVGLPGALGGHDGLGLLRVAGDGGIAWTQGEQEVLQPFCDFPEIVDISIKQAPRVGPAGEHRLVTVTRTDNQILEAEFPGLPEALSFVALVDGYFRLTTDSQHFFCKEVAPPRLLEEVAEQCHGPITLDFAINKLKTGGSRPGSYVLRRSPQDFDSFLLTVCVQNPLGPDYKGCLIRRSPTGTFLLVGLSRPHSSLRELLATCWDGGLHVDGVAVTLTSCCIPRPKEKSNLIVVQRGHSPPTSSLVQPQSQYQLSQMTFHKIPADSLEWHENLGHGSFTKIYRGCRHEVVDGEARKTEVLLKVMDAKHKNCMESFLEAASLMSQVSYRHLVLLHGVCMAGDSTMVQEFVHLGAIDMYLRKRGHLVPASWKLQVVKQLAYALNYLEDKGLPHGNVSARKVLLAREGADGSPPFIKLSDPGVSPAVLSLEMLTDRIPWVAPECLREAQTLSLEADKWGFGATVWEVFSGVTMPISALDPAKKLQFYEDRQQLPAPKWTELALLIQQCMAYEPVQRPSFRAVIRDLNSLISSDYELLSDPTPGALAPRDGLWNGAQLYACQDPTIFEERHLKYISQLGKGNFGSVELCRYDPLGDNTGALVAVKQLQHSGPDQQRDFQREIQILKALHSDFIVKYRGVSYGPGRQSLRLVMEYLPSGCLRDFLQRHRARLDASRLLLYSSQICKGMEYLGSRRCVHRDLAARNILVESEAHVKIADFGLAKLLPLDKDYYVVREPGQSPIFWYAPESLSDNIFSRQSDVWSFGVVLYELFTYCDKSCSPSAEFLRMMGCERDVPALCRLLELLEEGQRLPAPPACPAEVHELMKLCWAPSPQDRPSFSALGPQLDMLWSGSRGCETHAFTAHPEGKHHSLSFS

[2] = biological target: Tyrosine-protein kinase JAK2 (Homo sapiens, UniProt O60674); assay type: ADME
Sequence of Tyrosine-protein kinase JAK2 (O60674 whole entry, the tested form may be a part): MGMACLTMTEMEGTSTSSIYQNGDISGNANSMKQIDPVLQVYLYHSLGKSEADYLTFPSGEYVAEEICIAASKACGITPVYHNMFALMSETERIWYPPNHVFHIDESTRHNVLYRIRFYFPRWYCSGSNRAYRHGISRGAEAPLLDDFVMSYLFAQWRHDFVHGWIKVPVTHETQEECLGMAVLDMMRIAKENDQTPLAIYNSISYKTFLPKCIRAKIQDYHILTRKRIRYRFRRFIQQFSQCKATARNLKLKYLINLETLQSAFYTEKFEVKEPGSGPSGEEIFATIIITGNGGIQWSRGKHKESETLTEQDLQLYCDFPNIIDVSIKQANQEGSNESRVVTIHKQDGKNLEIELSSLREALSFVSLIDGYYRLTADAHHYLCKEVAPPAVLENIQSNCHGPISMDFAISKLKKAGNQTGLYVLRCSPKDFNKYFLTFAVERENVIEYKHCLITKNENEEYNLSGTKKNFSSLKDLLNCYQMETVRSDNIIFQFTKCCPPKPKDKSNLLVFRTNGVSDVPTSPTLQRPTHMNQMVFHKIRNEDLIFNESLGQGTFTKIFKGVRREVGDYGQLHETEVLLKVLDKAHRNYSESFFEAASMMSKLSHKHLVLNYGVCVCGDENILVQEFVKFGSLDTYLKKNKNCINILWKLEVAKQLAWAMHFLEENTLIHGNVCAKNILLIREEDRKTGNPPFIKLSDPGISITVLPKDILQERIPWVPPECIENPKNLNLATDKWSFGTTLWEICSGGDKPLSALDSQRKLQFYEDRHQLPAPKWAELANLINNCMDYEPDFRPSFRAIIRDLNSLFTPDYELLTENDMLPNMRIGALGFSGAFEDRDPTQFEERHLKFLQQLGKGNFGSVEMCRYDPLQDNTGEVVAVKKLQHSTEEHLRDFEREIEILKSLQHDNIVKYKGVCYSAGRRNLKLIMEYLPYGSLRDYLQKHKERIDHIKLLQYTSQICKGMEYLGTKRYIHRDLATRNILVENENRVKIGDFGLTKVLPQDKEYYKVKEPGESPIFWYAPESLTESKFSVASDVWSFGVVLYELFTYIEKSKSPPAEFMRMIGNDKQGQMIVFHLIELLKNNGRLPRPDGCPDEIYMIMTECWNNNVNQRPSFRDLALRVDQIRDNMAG

[3] = biological target: Tyrosine-protein kinase JAK1 (Homo sapiens, UniProt P23458); test: Inhibition of recombinant human GST-tagged JAK1 cytoplasmic domain (866 to 1154 residues) expressed in baculovirus expression system using TK-substrate-biotin preincubated for 5 mins followed by substrate addition and measured after 30 mins by HTRF assay
Sequence of Tyrosine-protein kinase JAK1 (P23458 whole entry, the tested form may be a part): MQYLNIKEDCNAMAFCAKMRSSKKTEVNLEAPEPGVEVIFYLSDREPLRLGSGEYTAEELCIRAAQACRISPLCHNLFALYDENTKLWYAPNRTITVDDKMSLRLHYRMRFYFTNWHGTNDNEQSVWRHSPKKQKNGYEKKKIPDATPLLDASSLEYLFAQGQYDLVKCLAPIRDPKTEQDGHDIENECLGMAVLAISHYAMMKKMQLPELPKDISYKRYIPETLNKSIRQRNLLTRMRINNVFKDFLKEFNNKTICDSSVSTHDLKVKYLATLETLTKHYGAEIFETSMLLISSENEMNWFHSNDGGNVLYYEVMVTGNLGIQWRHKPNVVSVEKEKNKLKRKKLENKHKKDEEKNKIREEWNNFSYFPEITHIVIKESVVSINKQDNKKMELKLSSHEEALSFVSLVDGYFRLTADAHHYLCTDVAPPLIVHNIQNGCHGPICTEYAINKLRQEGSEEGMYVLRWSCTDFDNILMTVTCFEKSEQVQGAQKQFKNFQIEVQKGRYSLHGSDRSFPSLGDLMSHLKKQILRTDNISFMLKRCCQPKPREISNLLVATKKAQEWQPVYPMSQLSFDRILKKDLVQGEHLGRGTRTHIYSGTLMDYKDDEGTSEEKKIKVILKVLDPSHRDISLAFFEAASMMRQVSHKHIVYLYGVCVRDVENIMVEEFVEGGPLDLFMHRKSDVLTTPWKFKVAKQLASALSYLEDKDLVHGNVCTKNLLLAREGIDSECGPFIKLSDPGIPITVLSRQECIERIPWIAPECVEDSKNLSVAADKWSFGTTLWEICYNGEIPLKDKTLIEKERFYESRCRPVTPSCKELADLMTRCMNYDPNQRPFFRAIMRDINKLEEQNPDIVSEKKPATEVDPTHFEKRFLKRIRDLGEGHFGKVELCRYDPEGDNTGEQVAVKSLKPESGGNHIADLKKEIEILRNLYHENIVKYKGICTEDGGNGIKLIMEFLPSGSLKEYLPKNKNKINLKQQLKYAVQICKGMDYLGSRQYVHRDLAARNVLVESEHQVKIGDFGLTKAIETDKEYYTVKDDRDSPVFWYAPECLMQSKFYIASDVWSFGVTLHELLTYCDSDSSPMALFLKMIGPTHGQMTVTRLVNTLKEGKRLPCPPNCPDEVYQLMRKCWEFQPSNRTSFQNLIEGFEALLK

[4] = biological target: Non-receptor tyrosine-protein kinase TYK2 (Homo sapiens, UniProt P29597); test: Inhibition of recombinant human N-terminal GST-tagged TYK2 cytoplasmic domain (833 to 1187 residues) expressed in baculovirus expression system using TK-substrate-biotin preincubated for 5 mins followed by substrate addition and measured after 30 mins by HTRF assay
Sequence of Non-receptor tyrosine-protein kinase TYK2 (P29597 whole entry, the tested form may be a part): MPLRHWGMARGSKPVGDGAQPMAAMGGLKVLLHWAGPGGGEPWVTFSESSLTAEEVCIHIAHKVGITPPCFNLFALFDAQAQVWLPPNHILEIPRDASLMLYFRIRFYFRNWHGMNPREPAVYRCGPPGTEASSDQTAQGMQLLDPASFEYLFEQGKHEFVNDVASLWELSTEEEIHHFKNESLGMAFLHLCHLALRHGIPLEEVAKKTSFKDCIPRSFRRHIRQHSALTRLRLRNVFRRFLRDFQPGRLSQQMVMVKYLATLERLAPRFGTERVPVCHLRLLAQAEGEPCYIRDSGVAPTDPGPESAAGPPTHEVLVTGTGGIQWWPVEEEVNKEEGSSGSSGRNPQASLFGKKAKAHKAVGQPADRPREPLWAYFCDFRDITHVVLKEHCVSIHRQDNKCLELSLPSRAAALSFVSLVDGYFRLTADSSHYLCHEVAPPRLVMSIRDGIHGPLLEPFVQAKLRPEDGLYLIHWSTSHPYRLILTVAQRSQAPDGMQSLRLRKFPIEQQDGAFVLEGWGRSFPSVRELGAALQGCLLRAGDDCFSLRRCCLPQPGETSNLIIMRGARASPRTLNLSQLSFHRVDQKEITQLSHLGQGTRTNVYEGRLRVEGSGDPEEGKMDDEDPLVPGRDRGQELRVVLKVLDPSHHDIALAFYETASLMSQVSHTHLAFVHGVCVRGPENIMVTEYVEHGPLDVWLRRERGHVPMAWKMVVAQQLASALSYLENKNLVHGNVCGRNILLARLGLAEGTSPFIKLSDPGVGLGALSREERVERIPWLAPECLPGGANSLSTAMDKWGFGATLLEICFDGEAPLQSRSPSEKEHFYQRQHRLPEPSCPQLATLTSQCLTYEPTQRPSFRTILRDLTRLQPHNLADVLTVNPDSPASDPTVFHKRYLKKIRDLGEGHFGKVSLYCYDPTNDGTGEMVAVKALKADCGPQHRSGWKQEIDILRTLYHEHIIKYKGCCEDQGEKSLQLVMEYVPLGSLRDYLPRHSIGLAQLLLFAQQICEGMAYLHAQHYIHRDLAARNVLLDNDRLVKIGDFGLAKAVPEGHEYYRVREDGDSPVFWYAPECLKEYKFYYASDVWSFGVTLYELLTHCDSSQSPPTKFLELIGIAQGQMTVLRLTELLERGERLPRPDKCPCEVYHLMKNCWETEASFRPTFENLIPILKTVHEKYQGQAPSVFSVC

[5] = Cytotoxicity against resting mouse T cells assessed as reduction in cell viability at 10 uM measured after 72 hrs by MTS assay; assay type: cell-based
[6] = Cytotoxicity against IL-4-treated mouse T cells assessed as reduction in cell viability at 10 uM measured after 72 hrs by MTS assay; assay type: cell-based
RAW264.7 = test: Cytotoxicity against mouse RAW264.7 cells assessed as reduction in cell viability at 10 uM measured after 72 hrs by MTS assay; assay type: cell-based; conditions: raw264.7, 72 h
[7] = biological target: T2, Tyrosine-protein kinase JAK3 (Mus musculus) (UniProt Q62137); test: Inhibition of JAK3 in anti-CD3/-CD28 coated mouse T cells assessed as reduction in IL2-induced STAT5 phosphorylation at 10 uM preincubated for 1 hr followed by IL2 stimulation and measured after 30 mins by Western blot analysis; conditions: T cell
T2 sequence (whole entry): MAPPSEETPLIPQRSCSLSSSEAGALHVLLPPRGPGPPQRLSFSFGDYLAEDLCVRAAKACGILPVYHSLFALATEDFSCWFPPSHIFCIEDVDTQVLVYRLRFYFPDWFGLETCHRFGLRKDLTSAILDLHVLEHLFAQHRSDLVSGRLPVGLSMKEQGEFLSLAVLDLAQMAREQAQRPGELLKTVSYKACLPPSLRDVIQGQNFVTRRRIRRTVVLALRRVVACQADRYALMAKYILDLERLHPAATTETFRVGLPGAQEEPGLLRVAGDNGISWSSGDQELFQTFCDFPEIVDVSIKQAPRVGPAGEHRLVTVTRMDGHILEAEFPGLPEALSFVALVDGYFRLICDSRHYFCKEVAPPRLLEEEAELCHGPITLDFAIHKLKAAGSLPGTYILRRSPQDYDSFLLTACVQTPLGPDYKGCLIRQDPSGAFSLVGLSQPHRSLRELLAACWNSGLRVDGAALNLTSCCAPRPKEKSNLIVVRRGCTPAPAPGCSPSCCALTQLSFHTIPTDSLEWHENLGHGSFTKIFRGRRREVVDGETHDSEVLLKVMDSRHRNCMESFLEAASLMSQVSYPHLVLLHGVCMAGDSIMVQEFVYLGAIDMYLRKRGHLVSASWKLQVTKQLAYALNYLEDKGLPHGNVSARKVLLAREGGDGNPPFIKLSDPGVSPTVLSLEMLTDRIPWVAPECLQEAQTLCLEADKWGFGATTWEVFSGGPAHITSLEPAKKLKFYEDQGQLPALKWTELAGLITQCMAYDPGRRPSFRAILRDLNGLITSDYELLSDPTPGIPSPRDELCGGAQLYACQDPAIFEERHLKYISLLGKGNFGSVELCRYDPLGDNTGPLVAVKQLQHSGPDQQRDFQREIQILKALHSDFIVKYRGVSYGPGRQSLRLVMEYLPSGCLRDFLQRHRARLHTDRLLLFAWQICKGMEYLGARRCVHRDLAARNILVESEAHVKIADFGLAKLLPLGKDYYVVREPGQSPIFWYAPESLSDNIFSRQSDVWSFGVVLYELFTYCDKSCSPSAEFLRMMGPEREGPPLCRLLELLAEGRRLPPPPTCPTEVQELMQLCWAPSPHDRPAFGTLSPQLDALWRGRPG

[8] = biological target: T2, Tyrosine-protein kinase JAK3 (Mus musculus); test: Inhibition of JAK3 in anti-CD3/-CD28 coated mouse T cells assessed as reduction in IL15-induced STAT5 phosphorylation at 10 uM preincubated for 1 hr followed by […] and measured after 30 mins by Western blot analysis; conditions: T cell

Compound | IC50 [1] | IC50 [2] | IC50 [3] | IC50 [4] | Activity [5] | Activity [6] | Activity (RAW264.7) | inhibition [7] | inhibition [8]
C/C=C/C(=O)Nc1cccc(-c2cc(Nc3cnn(CCOC)c3)ncn2)c1 | 29 nM | 2580 nM | 1290 nM | > 3000 nM | – | – | – | – | –
C/C=C/C(=O)Nc1ccc(-c2cc(Nc3cnn(CCOC)c3)ncn2)cc1 | 76 nM | – | 2760 nM | – | – | – | – | – | –
COCCn1cc(Nc2cc(-c3ccc(NC(=O)CC#N)cc3)ncn2)cn1 | 86 nM | 1460 nM | 2680 nM | 1870 nM | – | – | – | – | –
C=CC(=O)Nc1ccc(-c2ccnc(Nc3cnn(CCOC)c3)n2)cc1 | 9.1 nM | 1080 nM | 1560 nM | > 3000 nM | Non-Toxic | Non-Toxic | Non-Toxic | Active | Active
COCCn1cc(Nc2nccc(-c3ccc(NC(=O)CC#N)cc3)n2)cn1 | 24 nM | – | 183 nM | 2500 nM | – | – | – | – | –
C=CC(=O)Nc1cccc(-c2ccnc(Nc3cnn(CCOC)c3)n2)c1 | 55 nM | 1290 nM | 1100 nM | 2870 nM | – | – | – | – | –
COCCn1cc(Nc2cc(-c3cccc(NC(=O)CC#N)c3)ncn2)cn1 | 65 nM | 587 nM | 322 nM | 2260 nM | – | – | – | – | –
C=CC(=O)Nc1cccc(-c2ccnc(Nc3ccc(N4CCOCC4)cc3)n2)c1 | 30 nM | 1800 nM | 2120 nM | 2440 nM | – | – | – | – | –
C/C=C/C(=O)Nc1cccc(-c2cc(Nc3ccc(N4CCOCC4)cc3)ncn2)c1 | – | 2130 nM | 2880 nM | > 3000 nM | – | – | – | – | –
C/C=C/C(=O)NCC(=O)Nc1cccc(-c2cc(Nc3ccc(N4CCOCC4)cc3)ncn2)c1 | 375 nM | – | 586 nM | – | – | – | – | – | –
C/C=C/C(=O)NCC(=O)Nc1cccc(-c2cc(Nc3cnn(CCOC)c3)ncn2)c1 | 108 nM | 886 nM | 45 nM | – | – | – | – | – | –
N#CCC(=O)Nc1cccc(-c2cc(Nc3cnn(CCO)c3)ncn2)c1 | 243 nM | 1140 nM | 1540 nM | – | – | – | – | – | –
C/C=C/C(=O)Nc1cccc(-c2cc(Nc3cnn(CC(=O)NC)c3)ncn2)c1 | 92 nM | 1110 nM | – | – | – | – | – | – | –
C=CC(=O)NCC(=O)Nc1cccc(-c2cc(Nc3ccc(N4CCOCC4)cc3)ncn2)c1 | 103 nM | > 3000 nM | 354 nM | – | – | – | – | – | –
CNC(=O)Cn1cc(Nc2cc(-c3cccc(NC(=O)CNC(=O)CC#N)c3)ncn2)cn1 | 127 nM | 2730 nM | > 3000 nM | – | – | – | – | – | –
N#CCC(=O)NCC(=O)Nc1cccc(-c2cc(Nc3ccc(N4CCOCC4)cc3)ncn2)c1 | 253 nM | 309 nM | 1430 nM | – | – | – | – | – | –
C/C=C/C(=O)Nc1ccc(-c2ccnc(Nc3cnn(CCOC)c3)n2)cc1 | 14 nM | 1980 nM | 1440 nM | > 3000 nM | – | – | – | – | –
C/C=C/C(=O)Nc1cccc(-c2ccnc(Nc3ccc(N4CCOCC4)cc3)n2)c1 | 33 nM | 2790 nM | – | 2650 nM | – | – | – | – | –
C=CC(=O)Nc1ccc(-c2cc(Nc3cnn(CCOC)c3)ncn2)cc1 | 67 nM | > 3000 nM | 1660 nM | > 3000 nM | – | – | – | – | –

Compound | IC50 [1] | IC50 [2] | IC50 [3] | IC50 [4] | Activity [5] | Activity [6] | Activity (RAW264.7) | inhibition [7] | inhibition [8]
C=CC(=O)Nc1ccc(-c2cc(Nc3ccc(N4CCOCC4)cc3)ncn2)cc1 | 112 nM | 1570 nM | 961 nM | – | – | – | – | – | –
C/C=C/C(=O)Nc1ccc(-c2cc(Nc3ccc(N4CCOCC4)cc3)ncn2)cc1 | 99 nM | 2150 nM | 321 nM | – | – | – | – | – | –
C/C=C/C(=O)Nc1cccc(-c2cc(Nc3cnn(C)c3)ncn2)c1 | 567 nM | 2760 nM | 1520 nM | – | – | – | – | – | –
Cn1cc(Nc2cc(-c3cccc(NC(=O)CNC(=O)CC#N)c3)ncn2)cn1 | 95 nM | 69 nM | 89 nM | – | – | – | – | – | –
N#CCC(=O)Nc1ccc(-c2ccnc(Nc3ccc(N4CCOCC4)cc3)n2)cc1 | – | – | 433 nM | > 3000 nM | – | – | – | – | –
N#CCC(=O)Nc1cccc(-c2ccnc(Nc3ccc(N4CCOCC4)cc3)n2)c1 | 152 nM | 216 nM | 2230 nM | > 3000 nM | – | – | – | – | –
N#CCC(=O)Nc1ccc(-c2cc(Nc3ccc(N4CCOCC4)cc3)ncn2)cc1 | 78 nM | – | 528 nM | – | – | – | – | – | –
C=CC(=O)Nc1cccc(-c2cc(Nc3cnn(CCOC)c3)ncn2)c1 | 101 nM | 2850 nM | 568 nM | – | – | – | – | – | –
C=CC(=O)Nc1cccc(-c2cc(Nc3cnn(C)c3)ncn2)c1 | 303 nM | 2240 nM | 657 nM | – | – | – | – | – | –
N#CCC(=O)Nc1cccc(-c2cc(Nc3ccc(N4CCOCC4)cc3)ncn2)c1 | 170 nM | 734 nM | 1860 nM | – | – | – | – | – | –
C=CC(=O)Nc1cccc(-c2cc(Nc3cnn(CCO)c3)ncn2)c1 | 599 nM | 2590 nM | – | – | – | – | – | – | –
Cn1cc(Nc2cc(-c3cccc(NC(=O)CC#N)c3)ncn2)cn1 | 145 nM | – | 854 nM | – | – | – | – | – | –
C=CC(=O)Nc1cccc(-c2cc(Nc3cnn(CC(=O)NC)c3)ncn2)c1 | 138 nM | – | 840 nM | – | – | – | – | – | –
C=CC(=O)Nc1cccc(-c2cc(Nc3ccc(N4CCOCC4)cc3)ncn2)c1 | 183 nM | 2040 nM | 1110 nM | – | – | – | – | – | –
C=CC(=O)Nc1cccc(-c2cc(Nc3cnn(CCN(C)C)c3)ncn2)c1 | 309 nM | > 3000 nM | 731 nM | – | – | – | – | – | –
C=CC(=O)NCC(=O)Nc1cccc(-c2cc(Nc3cnn(CCOC)c3)ncn2)c1 | 66 nM | 1540 nM | 56 nM | – | – | – | – | – | –
C/C=C/C(=O)Nc1cccc(-c2cc(Nc3cnn(CCN(C)C)c3)ncn2)c1 | 67 nM | 1890 nM | 899 nM | – | – | – | – | – | –
C/C=C/C(=O)Nc1cccc(-c2cc(Nc3cnn(CCO)c3)ncn2)c1 | 221 nM | 2810 nM | 2440 nM | – | – | – | – | – | –

Source: ChEMBL document CHEMBL4680201, “Design, synthesis, and pharmacological evaluation of 4- or 6-phenyl-pyrimidine derivatives as novel and selective Janus kinase 3 inhibitors” (Eur J Med Chem, 2020)
